Measured values from patent US5294611A, “Angiotensin II receptor blocking 2,3,6 substituted quinazolinones” (American Cyanamid Company, priority 1993, dated 1994).
Read-outs that look alike come from different tables or passages of the source.

System: Angiotensin II (AII) vasopressor response
Test: AII Challenge: antagonism of angiotensin II vasopressor response in conscious spontaneously hypertensive rats
Format: in vivo, rat (male okamoto-Aoki SHR)
Details: for inhibition in vivo at 3 mg/kg: Rattus norvegicus, read-out: Inhibition; for Change: single SHR
How it was run: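 Read-out is the systolic pressure increase (mmHg) to i.v. angiotensin II, 0.05 and 0.1 ug/kg, compared pre- and post-dose in restrained, conscious spontaneously hypertensive male rats. Compounds administered orally, i.p. or i.v.; arterial cannula inserted under local anaesthesia.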

[1] = iv, 0.5 h, SHR n=2, 3 mg/kg I.V., AII 0.05 mcg/kg IV, 30 min post dose
[2] = iv, 0.5 h, SHR n=2, 3 mg/kg I.V., AII 0.1 mcg/kg IV, 30 min post dose
[3] = iv, 1 h, SHR n=2, 3 mg/kg I.V., AII 0.05 mcg/kg IV, 60 min post dose
[4] = iv, 2 h, SHR n=2, 3 mg/kg I.V., AII 0.05 mcg/kg IV, 120 min post dose
[5] = iv, 2 h, SHR n=2, 3 mg/kg I.V., AII 0.1 mcg/kg IV, 120 min post dose
[6] = iv, 3 h, SHR n=2, 3 mg/kg I.V., AII 0.05 mcg/kg IV, 180 min post dose
[7] = iv, 3 h, SHR n=2, 3 mg/kg I.V., AII 0.1 mcg/kg IV, 180 min post dose
[8] = iv, […], SHR n=2, 3 mg/kg I.V., AII 0.05 mcg/kg IV, 90 min post dose
[9] = iv, […], SHR n=2, 3 mg/kg I.V., AII 0.1 mcg/kg IV, 90 min post dose
[10] = SHR n=2, 3 mg/kg I.V., AII 0.05 mcg/kg IV, 30 min post dose
[11] = SHR n=2, 3 mg/kg I.V., AII 0.05 mcg/kg IV, 60 min post dose
[12] = SHR n=2, 3 mg/kg I.V., AII 0.05 mcg/kg IV, 90 min post dose
[13] = SHR n=2, 3 mg/kg I.V., AII 0.05 mcg/kg IV, 120 min post dose
[14] = SHR n=2, 3 mg/kg I.V., AII 0.05 mcg/kg IV, 180 min post dose
[15] = SHR n=2, 3 mg/kg I.V., AII 0.1 mcg/kg IV, 30 min post dose
[16] = SHR n=2, 3 mg/kg I.V., AII 0.1 mcg/kg IV, 60 min post dose
[17] = SHR n=2, 3 mg/kg I.V., AII 0.1 mcg/kg IV, 90 min post dose
[18] = SHR n=2, 3 mg/kg I.V., AII 0.1 mcg/kg IV, 120 min post dose
[19] = SHR n=2, 3 mg/kg I.V., AII 0.1 mcg/kg IV, 180 min post dose

Q: Which results are given for `CCCCc1nc2ccc([C@H]3[C@@H]4C(=O)OC[C@@H]4ON3Cc3ccccc3)cc2c(=O)n1Cc1ccc(-c2ccccc2-c2nnn[nH]2)cc1` (relative stereo) [Example 57]?
A: inhibition in vivo at 3 mg/kg [1]: 100%; inhibition in vivo at 3 mg/kg [2]: 99%; inhibition in vivo at 3 mg/kg [3]: 100%; inhibition in vivo at 3 mg/kg (iv, 1 h, SHR n=2, 3 mg/kg I.V., AII 0.1 mcg/kg IV, 60 min post dose): 88%; inhibition in vivo at 3 mg/kg [4]: 90%; inhibition in vivo at 3 mg/kg [5]: 81%; inhibition in vivo at 3 mg/kg [6]: 61%; inhibition in vivo at 3 mg/kg [7]: 75%; inhibition in vivo at 3 mg/kg (iv, 4 h, SHR n=2, 3 mg/kg I.V., AII 0.05 mcg/kg IV, 240 min post dose): 77%; inhibition in vivo at 3 mg/kg (iv, 4 h, SHR n=2, 3 mg/kg I.V., AII 0.1 mcg/kg IV, 240 min post dose): 56%; inhibition in vivo at 3 mg/kg (iv, 5 h, SHR n=2, 3 mg/kg I.V., AII 0.05 mcg/kg IV, 300 min post dose): 71%; inhibition in vivo at 3 mg/kg (iv, 5 h, SHR n=2, 3 mg/kg I.V., AII 0.1 mcg/kg IV, 300 min post dose): 38%; inhibition in vivo at 3 mg/kg [8]: 93%; inhibition in vivo at 3 mg/kg [9]: 75%; inhibition in vivo at 3 mg/kg (po, 0.5 h, SHR n=2, 3 mg/kg P.O., AII 0.05 mcg/kg IV, 30 min post dose): 34%; inhibition in vivo at 3 mg/kg (po, 0.5 h, SHR n=2, 3 mg/kg P.O., AII 0.1 mcg/kg IV, 30 min post dose): 37%; inhibition in vivo at 3 mg/kg (po, 1 h, SHR n=2, 3 mg/kg P.O., AII 0.05 mcg/kg IV, 60 min post dose): 67%; inhibition in vivo at 3 mg/kg (po, 1 h, SHR n=2, 3 mg/kg P.O., AII 0.1 mcg/kg IV, 60 min post dose): 53%; inhibition in vivo at 3 mg/kg (po, 2 h, SHR n=2, 3 mg/kg P.O., AII 0.05 mcg/kg IV, 120 min post dose): 41%; inhibition in vivo at 3 mg/kg (po, 2 h, SHR n=2, 3 mg/kg P.O., AII 0.1 mcg/kg IV, 120 min post dose): 63%; inhibition in vivo at 3 mg/kg (po, 3 h, SHR n=2, 3 mg/kg P.O., AII 0.05 mcg/kg IV, 180 min post dose): 11%; inhibition in vivo at 3 mg/kg (po, 3 h, SHR n=2, 3 mg/kg P.O., AII 0.1 mcg/kg IV, 180 min post dose): 53%; inhibition in vivo at 3 mg/kg (po, […], SHR n=2, 3 mg/kg P.O., AII 0.05 mcg/kg IV, 90 min post dose): 47%; inhibition in vivo at 3 mg/kg (po, […], SHR n=2, 3 mg/kg P.O., AII 0.1 mcg/kg IV, 90 min post dose): 47%; Average Change [10]: 0 mmHg; Average Change [11]: 0 mmHg; Average Change [12]: 2.5 mmHg; Average Change [13]: 3.5 mmHg; Average Change [14]: 13.5 mmHg; Average Change (SHR n=2, 3 mg/kg I.V., AII 0.05 mcg/kg IV, 240 min post dose): 8 mmHg; Average Change (SHR n=2, 3 mg/kg I.V., AII 0.05 mcg/kg IV, 300 min post dose): 10 mmHg; Average Change [15]: 0.5 mmHg; Average Change [16]: 5 mmHg; Average Change [17]: 10 mmHg; Average Change [18]: 7.5 mmHg; Average Change [19]: 10 mmHg; Average Change (SHR n=2, 3 mg/kg I.V., AII 0.1 mcg/kg IV, 240 min post dose): 17.5 mmHg; Average Change (SHR n=2, 3 mg/kg I.V., AII 0.1 mcg/kg IV, 300 min post dose): 25 mmHg; Average Change (SHR n=2, 3 mg/kg P.O., AII 0.05 mcg/kg IV, 30 min post dose): 25 mmHg; Average Change (SHR n=2, 3 mg/kg P.O., AII 0.05 mcg/kg IV, 60 min post dose): 12.5 mmHg; Average Change (SHR n=2, 3 mg/kg P.O., AII 0.05 mcg/kg IV, 90 min post dose): 20 mmHg; Average Change (SHR n=2, 3 mg/kg P.O., AII 0.05 mcg/kg IV, 120 min post dose): 22.5 mmHg; Average Change (SHR n=2, 3 mg/kg P.O., AII 0.05 mcg/kg IV, 180 min post dose): 34 mmHg; Average Change (SHR n=2, 3 mg/kg P.O., AII 0.1 mcg/kg IV, 30 min post dose): 30 mmHg; Average Change (SHR n=2, 3 mg/kg P.O., AII 0.1 mcg/kg IV, 60 min post dose): 22.5 mmHg; Average Change (SHR n=2, 3 mg/kg P.O., AII 0.1 mcg/kg IV, 90 min post dose): 25 mmHg; Average Change (SHR n=2, 3 mg/kg P.O., AII 0.1 mcg/kg IV, 120 min post dose): 17.5 mmHg; Average Change (SHR n=2, 3 mg/kg P.O., AII 0.1 mcg/kg IV, 180 min post dose): 22.5 mmHg; Change (3 mg/kg I.V., AII 0.05 mcg/kg IV, 30 min post dose): 0 mmHg; Change (3 mg/kg I.V., AII 0.05 mcg/kg IV, 60 min post dose): 0 mmHg; Change (3 mg/kg I.V., AII 0.1 mcg/kg IV, 300 min post dose): 25 mmHg; Change (3 mg/kg P.O., AII 0.05 mcg/kg IV, 30 min post dose): 25 mmHg; Change (3 mg/kg P.O., AII 0.1 mcg/kg IV, 30 min post dose): 30 mmHg

Q: For `CCCCc1nc2ccc([C@H]3[C@@H]4C5CCC(C5)[C@@H]4ON3C)cc2c(=O)n1Cc1ccc(-c2ccccc2-c2nnn[nH]2)cc1` (some centres unmarked) [Example 51], which inhibition in vivo at 3 mg/kg [1] is on record?
A: 89%

Q: And the inhibition in vivo at 3 mg/kg [2]?
A: 87%

Q: And the inhibition in vivo at 3 mg/kg [3]?
A: 63%

Q: And the inhibition in vivo at 3 mg/kg (iv, 1 h)?
A: 82%

Q: And the inhibition in vivo at 3 mg/kg [4]?
A: 83%

Q: And the inhibition in vivo at 3 mg/kg [5]?
A: 75%

Q: And the inhibition in vivo at 3 mg/kg [6]?
A: 67%

Q: And the inhibition in vivo at 3 mg/kg [7]?
A: 63%

Q: And the inhibition in vivo at 3 mg/kg [8]?
A: 78%

Q: What about the inhibition in vivo at 3 mg/kg [9] of the same molecule?
A: 80%

Q: And the “Average Change” value [10]?
A: 5 mmHg

Q: What about the “Average Change” value [11] of the same molecule?
A: 16.5 mmHg

Q: And the “Average Change” value [12]?
A: 10 mmHg

Q: And the “Average Change” value [13]?
A: 7.5 mmHg

Q: What about the “Average Change” value [14] of the same molecule?
A: 15 mmHg

Q: And the “Average Change” value [15]?
A: 8 mmHg

Q: And the “Average Change” value [16]?
A: 11 mmHg

Q: What about the “Average Change” value [17] of the same molecule?
A: 12.5 mmHg

Q: What about the “Average Change” value [18] of the same molecule?
A: 15.5 mmHg

Q: And the “Average Change” value [19]?
A: 22.5 mmHg

Q: What about the Change (3 mg/kg I.V., AII 0.05 mcg/kg IV, 180 min post dose) of the same molecule?
A: 15 mmHg
